The source of these data is patent EP0554004A2, “Cephem compounds and antibacterial agents” (KATAYAMA SEIYAKUSYO CO. Ltd., priority 1992, dated 1993).

The structures appear in SMILES notation.

The subject of assay [1] is A. calcoaceticos T59. The experiment in a line: MIC against standard strains (Test Example 3). The settings on record: A. calcoaceticos T59 (Test Example 3); read-out: MIC. Format: cell-based. The procedure:
(§1) By using each test strain cultured overnight at 37°C in a Muller-Hinton broth, there was prepared a bacterial solution with a bacterial cell population of 1 x 10^6 CFU/mi of the same bouillon. The bacterial solution was inoculated into the Muller-Hinton agar media each containing respectively one test agent and, after overnight incubation at 37°C, the minimum concentration that inhibited growth of the bacteria was determined and shown as MIC also in Table 1.
(§2) The minimum growth inhibitory concentration was determined for each of the 21 standard strains shown in Table 3, according to the same method as used in Test Example 1.
(§3) In the test, FMOX (flomoxef), CTM (cefotiam) and CEZ (cefazolin) were used as control agents.

Assay [2] has as its system A. faecalis ATCC3750. The assay can be described thus: MIC against standard strains (Test Example 3). It counts as cell-based. Conditions: Alcaligenes faecalis; A. faecalis ATCC3750 (Test Example 3); read-out: MIC. The procedure:
as §1, §2, §3

Assay [3] deals with B. subtilis ATCC6633. The assay can be described thus: MIC against standard strains (Test Example 3). It counts as cell-based. Conditions: Bacillus subtilis; B. subtilis ATCC6633 (Test Example 3); read-out: MIC. The procedure:
as §1, §2, §3

The subject of assay [4] is C. freundii ATCC8090. The experiment in a line: MIC against standard strains (Test Example 3). It counts as cell-based. The settings on record: Citrobacter freundii; C. freundii ATCC8090 (Test Example 3); read-out: MIC. The procedure:
as §1, §2, §3

Assay [5] relates to E. cloacae ATCC13407. The experiment in a line: MIC against standard strains (Test Example 3). Format: cell-based. The settings on record: Enterobacter cloacae; E. cloacae ATCC13407 (Test Example 3); read-out: MIC. The procedure:
as §1, §2, §3

In assay [6] the test system is E. coli CSH2 (RE45). The experiment in a line: MIC against standard strains (Test Example 3). Format: cell-based. The settings on record: Escherichia coli. As to the method:
as §1, §2, §3

Assay [7] deals with E. coli CSH2 (RK1). The assay can be described thus: MIC against standard strains (Test Example 3). It counts as cell-based. The settings on record: Escherichia coli. The procedure: as §1, §2, §3
For assay [8], the system named is E. coli NIHJ JC-2. The assay can be described thus: MIC against standard strains (Test Example 3). It counts as cell-based. Conditions: Escherichia coli, NIHJJC2; E. coli NIHJ JC-2 (Test Example 3); read-out: MIC. As to the method: as §1, §2, §3
Assay [9] relates to K. pneumoniae IFO3317. The experiment in a line: MIC against standard strains (Test Example 3). It counts as cell-based. The settings on record: Klebsiella pneumoniae; K. pneumoniae IFO3317 (Test Example 3); read-out: MIC. As to the method:
as §1, §2, §3

Assay [10] deals with K. pneumoniae No. 42. The assay can be described thus: MIC against standard strains (Test Example 3). Format: cell-based. Conditions: Klebsiella pneumoniae; K. pneumoniae No. 42 (Test Example 3); read-out: MIC. The procedure:
as §1, §2, §3

In assay [11] the test system is M. Morganii IFO3848. The experiment in a line: MIC against standard strains (Test Example 3). Format: cell-based. The settings on record: Morganella morganii; M. Morganii IFO3848 (Test Example 3); read-out: MIC. As to the method: as §1, §2, §3
Assay [12] has as its system M. luteus ATCC 9341. The assay can be described thus: MIC against standard strains (Test Example 3). Format: cell-based. The settings on record: Micrococcus luteus, ATCC9341; M. luteus ATCC 9341 (Test Example 3); read-out: MIC. The procedure: as §1, §2, §3
Assay [13] relates to P. aeruginosa NCTC10490. The experiment in a line: MIC against standard strains (Test Example 3). It counts as cell-based. The settings on record: Pseudomonas aeruginosa; P. aeruginosa NCTC10490 (Test Example 3); read-out: MIC. As to the method: as §1, §2, §3
The subject of assay [14] is P. mirabilis IFO3849. The assay can be described thus: MIC against standard strains (Test Example 3). Format: cell-based. Conditions: Proteus mirabilis; P. mirabilis IFO3849 (Test Example 3); read-out: MIC. The procedure: as §1, §2, §3
The test system of assay [15] is P. vulugaris OX-19. The experiment in a line: MIC against standard strains (Test Example 3). Format: cell-based. The settings on record: P. vulugaris OX-19 (Test Example 3); read-out: MIC. As to the method:
as §1, §2, §3

Assay [16] has as its system S. aureus 167. The experiment in a line: MIC against standard strains (Test Example 3). The settings on record: Staphylococcus aureus; S. aureus 167 (MRSA) (Test Example 3); read-out: MIC. It counts as cell-based. The procedure:
as §1, §2, §3

Assay [17] concerns S. aureus 195. The experiment in a line: MIC against standard strains (Test Example 3). It counts as cell-based. The settings on record: Staphylococcus aureus; S. aureus 195 (MRSA) (Test Example 3); read-out: MIC. The procedure:
as §1, §2, §3

The subject of assay [18] is S. aureus 209p JC-1. The assay can be described thus: MIC against standard strains (Test Example 3). It counts as cell-based. Conditions: Staphylococcus aureus; S. aureus 209p JC-1 (Test Example 3); read-out: MIC. As to the method:
as §1, §2, §3

For assay [19], the system named is S. aureus Smith. The experiment in a line: MIC against standard strains (Test Example 3). Format: cell-based. Conditions: Staphylococcus aureus; S. aureus Smith (Test Example 3); read-out: MIC. As to the method: as §1, §2, §3
Assay [20] concerns S. epidemidis IAM1296. The experiment in a line: MIC against standard strains (Test Example 3). The settings on record: S. epidemidis IAM1296 (Test Example 3); read-out: MIC. It counts as cell-based. The procedure:
as §1, §2, §3

The subject of assay [21] is S. marcescens IAM1184. The experiment in a line: MIC against standard strains (Test Example 3). It counts as cell-based. The settings on record: Serratia marcescens; S. marcescens IAM1184 (Test Example 3); read-out: MIC. As to the method: as §1, §2, §3
Assay [22] deals with clinically isolated MRSA. The assay can be described thus: Antibacterial potency against clinically isolated MRSA (Test Example 4). The settings on record: Staphylococcus aureus, 52 strains of clinically isolated MRSA; for MIC50: concentration inhibiting growth of 50% of the strains (Test Example 4), read-out: MIC50; for MIC90: concentration inhibiting growth of 90% of the strains (Test Example 4), read-out: MIC90. Format: cell-based, methicillin-resistant Staphylococcus aureus. As to the method:
52 strains of clinically isolated MRSA were used, and MIC was determined for each of the strains according to the standard method of the Japan Chemotherapical Society as in Test Example 1. The minimum growth inhibitory concentration which inhibited growth of 50% of the strains tested was expressed as MIC50 (µg/ml), and the minimum growth inhibitory concentration which inhibited growth of 90% of the strains was expressed as MIC90 (µg/ml).
MIC 50 and MIC 90 were determined for each of the 52 strains of clinically isolated MRSA according to the same method as used in Test Example 2.
VCM (vancomycin) was used as control agent.

Regarding `Cc1nc(-c2ccc[n+](CC3=C(C(=O)[O-])N4C(=O)[C@@H](NC(=O)/C(=N\O)c5csc(N)n5)[C@H]4SC3)c2)cs1` [Compound (11), 7β-[2-(2-aminothiazol-4-yl)-2-syn-hydroxyiminoacetamido]-3-[[3-(2-methylthiazol-4-yl)-I-pyridinio]methyl]-3-cephem-4-carboxylic acid chloride], the MIC is 25 µg/mL in [1]; 3.13 µg/mL in assay [2]; 0.2 µg/mL in assay [3]; 0.39 µg/mL in assay [4]; 3.13 µg/mL in [5]; 0.39 µg/mL in assay [6]. The MIC in assay [7] is 0.78 µg/mL; in assay [8], 0.39 µg/mL; in assay [9], 0.2 µg/mL; in assay [10] it was 0.78 µg/mL; in assay [11], 0.1 µg/mL; in assay [12], 0.05 µg/mL. The MIC in assay [13] was found to be 6.25 µg/mL; in assay [14], 0.78 µg/mL; in assay [15] it was 0.2 µg/mL; in assay [16], 3.13 µg/mL; in [17] it was 1.56 µg/mL; in assay [18], 0.2 µg/mL. Further, the MIC in assay [19] worked out at 0.39 µg/mL; in assay [20], 0.1 µg/mL; in assay [21] it was 0.39 µg/mL. Moreover, in assay [22], the MIC50 was found to be 1.85 µg/mL. Besides, the MIC90 in assay [22] worked out at 3.04 µg/mL.

Regarding `NC(=O)Cc1ccc[n+](CC2=C(C(=O)[O-])N3C(=O)[C@@H](NC(=O)/C(=N\O)c4csc(N)n4)[C@H]3SC2)c1` [Compound (7), 7β-[2-(2-aminothiazol-4-yl)-2-syn-hydroxyiminoacetamido]-3-[(3-carbamoylmethyl-1-pyridinio)methyl]-3-cephem-4-carboxylic acid chloride], the MIC in [1] was 3.13 µg/mL; in assay [2], 1.56 µg/mL; in [3], 0.39 µg/mL; in assay [4] it was 0.2 µg/mL; in [5], 0.39 µg/mL; in assay [6], 0.2 µg/mL. The MIC was 0.78 µg/mL in assay [7]; 0.2 µg/mL in assay [8]; 0.2 µg/mL in [9]; 0.39 µg/mL in [10]; 0.1 µg/mL in [11]; 0.1 µg/mL in [12]. Besides, the MIC was found to be 1.56 µg/mL in [13]; 0.2 µg/mL in assay [14]; 0.39 µg/mL in [15]; 12.5 µg/mL in assay [16]; 3.13 µg/mL in [17]; 0.2 µg/mL in [18]. Further, the minimal inhibitory concentration (MIC) was 0.39 µg/mL in assay [19], 0.1 µg/mL in [20] and 0.2 µg/mL in assay [21]. Also, the MIC50 in assay [22] was found to be 2.04 µg/mL. In assay [22], the MIC90 was 5.44 µg/mL.

The MIC is the lowest concentration found to suppress growth. The term MIC50 denotes the lowest concentration that inhibits either 50% of growth or 50% of the strains tested, depending on the study. As a reminder, the MIC90 is the lowest concentration that inhibits either 90% of growth or 90% of the strains tested, depending on the study.
